This note sets out measurements from PubChem BioAssay AID743097 (Vanderbilt Specialized Chemistry Center, 2013).

pEC50: −log10 of the molar value. Calls of active or inactive are those of the source. No rule for the calls is given here.

Sequence of Muscarinic acetylcholine receptor M1 (Homo sapiens) (P11229 whole entry, looked up): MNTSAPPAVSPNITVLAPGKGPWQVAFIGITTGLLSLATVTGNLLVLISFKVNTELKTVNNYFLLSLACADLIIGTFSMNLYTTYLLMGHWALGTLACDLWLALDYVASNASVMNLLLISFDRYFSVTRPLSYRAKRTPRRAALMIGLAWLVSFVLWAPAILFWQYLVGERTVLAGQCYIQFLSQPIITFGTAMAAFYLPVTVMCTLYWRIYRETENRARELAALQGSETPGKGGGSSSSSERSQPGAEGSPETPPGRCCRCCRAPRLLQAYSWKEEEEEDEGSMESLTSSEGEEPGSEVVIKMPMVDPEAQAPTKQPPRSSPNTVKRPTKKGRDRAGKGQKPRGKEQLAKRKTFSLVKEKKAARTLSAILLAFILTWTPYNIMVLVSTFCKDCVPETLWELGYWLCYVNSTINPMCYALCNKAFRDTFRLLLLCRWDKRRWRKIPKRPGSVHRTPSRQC

The first assay has as its target Muscarinic acetylcholine receptor M1 (Homo sapiens) (UniProt P11229). The assay is described as follows: potentiation of ACh response at M1 – cell-based, human M1, selectivity assay for M5 PAM discovery project (AID 743097). The note with it: CHO-K1 hM1, Fluo-4 calcium flux, ACh EC20 potentiation. In general terms: A change in cytosolic calcium serves as a functional read-out for many receptors and channels.
One may read the pEC50 as −log10 of the EC50, conventionally taken in molar units. Turning to `CCN(Cc1ccccc1C(F)(F)F)C(=O)C1CCN(S(=O)(=O)c2ccc3[nH]ncc3c2)CC1`, the pEC50 is 5.16.

For the compound `CCN(C(=O)C1CCN(S(=O)(=O)c2ccc3[nH]ncc3c2)CC1)[C@H](C)c1ccccc1`, the pEC50 was 5.28.

As for `CCN(Cc1ccccc1Cl)C(=O)C1CCN(S(=O)(=O)c2ccc3cn[nH]c3c2)CC1`, the pEC50 is 5.40.

As for `CCN(Cc1ccccc1Cl)C(=O)C1CCN(S(=O)(=O)c2ccc3[nH]ncc3c2)CC1`, the pEC50 is 5.60.

As to `CCN(Cc1ccccc1C(F)(F)F)C(=O)C1(F)CCN(S(=O)(=O)c2ccc3[nH]ncc3c2)CC1`, the pEC50 was 5.32.

Still in this assay, the particulars now being: CHO-K1 hM1, Fluo-4 calcium flux, ACh EC20 potentiation; at 30 µM (top of the series).
On to `CCN(C(=O)C1CCN(S(=O)(=O)c2ccc(OC)cc2)CC1)[C@H](C)c1ccccc1`, for which the “% of ACh max response” value is “inactive”.
